What all share (assay): microbe, parasite or virus in culture
Common to all, as to details: for IC50: Influenza A virus, MDCK; for SI: TC50/IC50

One assay has as its system A/tianjinjinnan/15/2009. It is filed as cell-based, Influenza A virus (H1N1, oseltamivir-resistant).
For another assay, the system named is A/hunanzhuhui/1222/2010. Format: cell-based, Influenza A virus (H3N2, amantadine-resistant).
Assay [1] relates to A/liaoningzhenxing/1109/2010. It is filed as cell-based, Influenza A virus (H1N1, oseltamivir-resistant).
The next assay relates to A/fujiantongan/196/2009. It is filed as cell-based, Influenza A virus (H3N2, amantadine-resistant).

Molecules are shown by their SMILES. Structures can show the parent of a compound that is named as a salt.

As to `NC12CC3CC(CC(C3)C1)C2` [AH, amantadine hydrochloride], the IC50 (commonly the concentration needed to halve the response being measured) with A/tianjinjinnan/15/2009 stood at 18.2 ± 0.24 µM; with A/hunanzhuhui/1222/2010 it was 57.2 ± 2.23 µM; in assay [1], 10.13 ± 0.04 µM; in the assay on A/fujiantongan/196/2009 it was 78.8 ± 3.04 µM.
As to `O=[N+]([O-])c1ccc(CNc2ccc3ncsc3c2)cc1` [N30, N-(4-nitrophenylmethyl) benzothiazole-6-amine], the IC50 in the assay on A/tianjinjinnan/15/2009 was determined as 1.67 ± 0.49 µM; with A/hunanzhuhui/1222/2010, 1.76 ± 0.24 µM; in assay [1], 3.43 ± 3.36 µM; in the assay on A/fujiantongan/196/2009 it was 1.13 ± 0.43 µM. Further, the SI came out at 39.92 in the assay on A/tianjinjinnan/15/2009, 37.89 with A/hunanzhuhui/1222/2010, 19.44 in assay [1] and 59.00 in the assay with A/fujiantongan/196/2009.
Turning to `CCC(CC)O[C@@H]1C=C(C(=O)O)C[C@H](N)[C@H]1NC(C)=O` [OC, oseltamivir carboxylate], the 50% inhibitory concentration (IC50) came to 2.57 ± 0.1 µM in the assay on A/tianjinjinnan/15/2009, 0.78 ± 0.02 µM in the assay on A/hunanzhuhui/1222/2010, 3.2 ± 0.21 µM in assay [1] and 0.28 ± 0.01 µM with A/fujiantongan/196/2009. In addition, the SI in the assay with A/tianjinjinnan/15/2009 is on record as more than 19.45; with A/hunanzhuhui/1222/2010 it was more than 64.10; in assay [1] it was more than 15.58; with A/fujiantongan/196/2009, more than 178.57.
Take `NC(=O)c1ncn([C@@H]2O[C@H](CO)[C@@H](O)[C@H]2O)n1` [RBV, Ribavirin]: the IC50 in the assay on A/tianjinjinnan/15/2009 came out at 2.54 ± 1.25 µM; in assay [1] it was 4.92 ± 3.02 µM; in the assay on A/fujiantongan/196/2009, 4.42 ± 0.74 µM.
